Assay results published in patent US20070129438A1 (priority 2002, published 2007).

Target: abnormal prion protein (Ovis aries, UniProt P23907)
Format: biochemical, sheep

Sequence of abnormal prion protein (P23907 25-233 limits assumed): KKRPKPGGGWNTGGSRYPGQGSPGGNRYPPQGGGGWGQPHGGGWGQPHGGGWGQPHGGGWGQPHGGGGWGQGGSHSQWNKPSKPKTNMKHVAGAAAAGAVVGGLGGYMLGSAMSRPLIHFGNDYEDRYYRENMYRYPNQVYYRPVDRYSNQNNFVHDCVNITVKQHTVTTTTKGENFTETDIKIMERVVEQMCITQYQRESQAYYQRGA

## CC(C)C[C@H](N)C(=O)O [leucine]
Leucine 15 mg/mL, PMCA
  suppression of proliferation of abnormal prion protein in vitro: effectively suppressed proliferation of abnormal prion protein
Leucine final concentration 15 mg/mL, up to 10 cycles of incubation-sonication, PK 50 μg/mL
  bands of PK resistant fragments after PMCA (Western blotting): no prominent bands were formed
